According to patent US10687543B2, “Probiotic bacterial molecules and their use in methods to treat/prevent infection by harmful bacteria and to provide nutritional health” (priority 2008, dated 2020):

System: E. coli O157:H7 strain VS94
Format: cell-based, Escherichia coli O157:H7

CC(C)NCC(O)COc1cccc2ccccc12 (stereo not drawn) [β-blocker, propanolol]
% Adherence: 22%
